Here are results for six compounds from ChEMBL document CHEMBL3425412, “Additional sesterterpenes and a nortriterpene saponin from the sponge Clathria gombawuiensis” (2015).

What all share (type): functional
For one assay, the system named is Staphylococcus aureus. In words: Antimicrobial activity against Staphylococcus aureus ATCC 6538p after 24 hrs by twofold dilution method.
The next assay has as its system Proteus hauseri. Kind of assay: Antimicrobial activity against Proteus hauseri NBRC 3851 after 24 hrs by twofold dilution method. The settings on record: NBRC 3851, 24 h.
In another assay the test system is K562. In words: Cytotoxicity against human K562 cells. The settings on record: read-out: LC50 (the source's name).
In the next assay the test system is A549. Kind of assay: Cytotoxicity against human A549 cells. The note with it: read-out: LC50 (the source's name).
Another assay concerns Kocuria rhizophila. Kind of assay: Antimicrobial activity against Kocuria rhizophila NBRC 12708 after 24 hrs by twofold dilution method. The settings on record: NBRC 12708, 24 h.
For another assay, the system named is Salmonella enterica. Kind of assay: Antimicrobial activity against Salmonella enterica ATCC 14028 after 24 hrs by twofold dilution method. The note with it: ATCC 14028, 24 h.
For a further assay, the system named is Bacillus subtilis. Kind of assay: Antimicrobial activity against Bacillus subtilis ATCC 6633 after 24 hrs by twofold dilution method. The note with it: ATCC 6633, 24 h.

Values after ≈ are worked out from the molar mass of the structure shown. A value given as a limit tells only on which side of the number the result lay.

For the compound `C=C1/C=C\[C@@H]2[C@@]3(C)CCCC(C)(C)[C@@H]3[C@H](O)C[C@@]2(C)O[C@@H]2C=C(C)C(=O)C[C@H]12`, the minimal inhibitory concentration (MIC) against Staphylococcus aureus and with Proteus hauseri was greater than 100 µg/mL each time. Further, the CC50 with K562 amounted to 4.5 µM; in the assay with A549 it was 3.9 µM.
On to `CC1(C)S[C@@H]2[C@H](NC(=O)[C@H](N)c3ccccc3)C(=O)N2[C@H]1C(=O)O` [AMPICILLIN], for which the minimum inhibitory concentration (MIC) (commonly the smallest concentration in the dilution series that meets the test's criterion for growth inhibition) against Staphylococcus aureus was determined as 0.4 µg/mL (≈ 1.14 µM); against Kocuria rhizophila, 0.4 µg/mL (≈ 1.14 µM); with Proteus hauseri it was 0.4 µg/mL (≈ 1.14 µM); with Salmonella enterica, 0.8 µg/mL (≈ 2.29 µM); in the assay on Bacillus subtilis it was 0.4 µg/mL (≈ 1.14 µM).
In the case of `COc1c(C)ccc2c1[C@@]1(C)C[C@H](O)[C@H]3C(C)(C)CCC[C@]3(C)[C@H]1C(=O)C=C2C`, the CC50 in the assay on K562 and with A549 was greater than 100 µM throughout.
In the case of `CC1=CC(=O)[C@@H]2[C@@]3(C)CCCC(C)(C)[C@@H]3[C@@H](O)C[C@]2(C)c2c1ccc(C)c2O`, the minimum inhibitory concentration (MIC) against Staphylococcus aureus and in the assay with Proteus hauseri was greater than 100 µg/mL in each case. Besides, the values for the CC50 with K562 and with A549 were 5.4 µM and 4.7 µM, respectively.
On to `COc1cccc2c1C(=O)c1c(O)c3c(c(O)c1C2=O)C[C@@](O)(C(=O)CO)C[C@@H]3O[C@H]1C[C@H](N)[C@H](O)[C@H](C)O1` [DOXORUBICIN], for which the CC50 in the assay with K562 is 1.5 µM; in the assay on A549, 1.1 µM.
In the case of `CC(=O)[C@H]1CC[C@@]2(C)C3=C(CC[C@]12C)[C@@]1(C)CCC(O[C@@H]2O[C@H](C(=O)O)[C@@H](O)[C@H](OS(=O)(=O)[O-])[C@H]2O)C(C)(C)[C@@H]1CC3.[Na+]` (some centres undefined), the MIC in the assay with Staphylococcus aureus was greater than 100 µg/mL; in the assay with Kocuria rhizophila, greater than 100 µg/mL; in the assay with Proteus hauseri it was 3.1 µg/mL; in the assay on Salmonella enterica it was greater than 100 µg/mL; in the assay on Bacillus subtilis, 1.6 µg/mL. The CC50 in the assay on K562 was determined as 1.8 µM; in the assay with A549, 2.1 µM.
